Results as given in patent publication US8436039B2, “Inhibitors of the ATB(0,+) transporter and uses thereof” (Georgia Health Sciences University Research Institute, Inc., priority 2008, dated 2013).

Key:
Format in all cases: cell-based
mouse ATB^0,+ [1] = target: T1, mouse ATB^0,+ (Mus musculus, UniProt Q9JMA9); assay: Inhibition of ATB^0,+-mediated glycine uptake in HRPE cells expressing cloned mouse ATB^0,+; settings: for inhibition of ATB^0,+-specific glycine uptake: glycine 10 μM, inhibitor 1 mM, 30 min, NaCl, HRPE cells
T1 sequence (Q9JMA9 1-638): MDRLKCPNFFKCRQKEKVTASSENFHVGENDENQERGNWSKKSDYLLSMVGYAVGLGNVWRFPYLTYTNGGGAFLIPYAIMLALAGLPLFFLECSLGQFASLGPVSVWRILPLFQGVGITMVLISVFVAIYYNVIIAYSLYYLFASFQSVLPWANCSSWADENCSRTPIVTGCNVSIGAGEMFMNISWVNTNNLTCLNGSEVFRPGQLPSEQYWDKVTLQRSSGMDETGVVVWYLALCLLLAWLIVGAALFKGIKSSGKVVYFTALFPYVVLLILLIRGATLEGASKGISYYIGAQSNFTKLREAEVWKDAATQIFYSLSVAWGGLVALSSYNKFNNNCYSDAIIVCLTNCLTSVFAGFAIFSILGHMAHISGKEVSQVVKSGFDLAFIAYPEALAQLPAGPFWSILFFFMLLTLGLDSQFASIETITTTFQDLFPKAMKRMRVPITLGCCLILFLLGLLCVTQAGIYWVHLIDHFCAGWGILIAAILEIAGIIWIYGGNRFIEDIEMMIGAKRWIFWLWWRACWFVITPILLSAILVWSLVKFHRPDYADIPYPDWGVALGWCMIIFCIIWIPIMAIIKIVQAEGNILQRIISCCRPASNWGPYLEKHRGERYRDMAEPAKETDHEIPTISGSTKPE

mouse ATB^0,+ [2] = target: T1, mouse ATB^0,+; assay: Substrate-induced inward currents in X. laevis oocytes expressing mouse ATB^0,+ (two-microelectrode voltage clamp); settings: for Michaelis constant (K0.5) of substrate-induced currents: saturation kinetics; for Michaelis constant (K0.5) of substrate-induced currents / inward currents induced in ATB^0,+-expressing oocytes: NaCl, voltage clamp; for inward currents induced in ATB^0,+-expressing oocytes: 2.5 mM
Procedure: Capped cRNA from the cloned mouse or human ATB^0,+ cDNA was synthesized using the mMESSAGE mMACHTNE kit (Ambion, Austin, Tex., U.S.A.). Mature oocytes (stage IV or V) from X. laevis were injected with 50 ng of cRNA. Uninjected oocytes served as controls. The oocytes were used for electrophysiological studies 3-6 days after cRNA injection. Electrophysiological studies were performed by the two-microelectrode voltage-clamp method (Nakanishi et al., 2001, J. Physiol. 532, 297-304). Oocytes were superfused with an NaCl-containing buffer (100 mM NaCl, 2 mM KCl, 1 mM MgCl2, 1 mM CaCl2, 3 mM Hepes, 3 mM Mes and 3 mM Tris, pH 7.5), followed by the same buffer containing tryptophan derivatives. The membrane potential was clamped at −50 mV. The differences between the steady-state currents measured in the presence and absence of substrates were considered as the substrate-induced currents. In the analysis of the saturation kinetics of substrate-induced currents, the kinetic parameter K0.5 (i.e. substrate concentration necessary for induction of half-maximal current) was calculated by fitting the values of the substrate-induced currents to the Michaelis-Menten equation. The Na^+ and Cl^− activation kinetics of substrate-induced currents were analysed by measuring the substrate-specific currents in the presence of increasing concentrations of Na^+ (concentration of Cl^− kept constant at 100 mM) or in the presence of increasing concentrations of Cl^− (concentration of Na^+ kept constant at 100 mM). In these experiments, the composition of the superfusion buffer was modified to contain 2 mM potassium gluconate, 1 mM MgSO4 and 1 mM calcium gluconate in place of KCl, MgCl2 and CaCl2 respectively. The data from these experiments were analysed by the Hill equation to determine the Hill coefficient (h; number of Na^+ and Cl^− ions involved in the activation process). The kinetic parameters were determined by using the commercially available computer program Sigma Plot, version 6.0 (SPSS, Chicago, Ill., U.S.A.). Uninjected oocytes were used to determine the currents induced by tryptophan derivatives due to entry via transporters that may be constitutively expressed in the oocytes. At a concentration of 2.5 mM, the currents induced by these compounds were in the range of 0-3 nA in uninjected oocytes. These currents were less than 2% of the corresponding currents induced in ATB^0,+ cRNA-injected oocytes. Therefore the endogenous currents associated with the constitutively expressed transporters were not considered in the analysis of kinetic parameters of ATB^0,+ transport activity.
The above studies with the mammalian cell expression system have focused on the interaction of 1-methyltryptophan and other tryptophan derivatives with ATB^0,+ by examining the effects of these compounds on the transporter-mediated glycine uptake. These studies have shown convincingly that 1-methyltryptophan interacts with ATB^0,+, with the L-isomer having much higher affinity for the transporter than the D-isomer. However, these studies have not shown whether or not 1-methyltryptophan is actually a transportable substrate for ATB^0,+. It is possible that 1-methyltryptophan inhibits ATB^0,+-mediated glycine uptake simply by blocking the interaction of glycine with the substrate-binding site of the transporter, rather than by actually competing with glycine for the transport process. […] We wanted to know whether 1-methyltryptophan can actually be transported by ATB^0,+. For this, we used the X. laevis oocyte expression system. Since the transport process mediated by ATB^0,+ is electrogenic, exposure of ATB^0,+-expressing oocytes to transportable substrates will induce an inward current in an Na^+- and Cl^−-dependent manner. Exposure of the same oocytes to blockers will interfere with currents induced by transportable substrates, but will not induce currents by themselves. […]

human LAT1/4F2hc = human LAT1/4F2hc (Homo sapiens, UniProt Q01650); assay: Inhibition of LAT1 transport function: L-valine uptake in HRPE cells co-expressing human LAT1 and human 4F2hc; settings: for effect on cDNA-induced valine uptake: 1 mM, L-[14C]valine 0.75 μM, 5 min
Sequence of human LAT1/4F2hc (Q01650 whole entry): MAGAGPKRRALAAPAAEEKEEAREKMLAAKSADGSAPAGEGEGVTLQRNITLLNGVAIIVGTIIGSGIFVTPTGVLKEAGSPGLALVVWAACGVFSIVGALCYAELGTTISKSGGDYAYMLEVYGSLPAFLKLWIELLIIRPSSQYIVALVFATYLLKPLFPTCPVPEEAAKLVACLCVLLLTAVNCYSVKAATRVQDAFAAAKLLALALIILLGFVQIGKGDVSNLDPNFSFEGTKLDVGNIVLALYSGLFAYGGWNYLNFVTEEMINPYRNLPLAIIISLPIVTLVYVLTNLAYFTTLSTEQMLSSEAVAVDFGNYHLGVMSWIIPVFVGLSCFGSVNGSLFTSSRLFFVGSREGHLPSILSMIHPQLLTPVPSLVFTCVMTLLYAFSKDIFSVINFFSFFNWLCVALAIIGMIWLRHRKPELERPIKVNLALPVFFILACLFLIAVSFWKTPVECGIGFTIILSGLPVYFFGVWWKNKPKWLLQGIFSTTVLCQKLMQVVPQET
Sequence of human LAT1/4F2hc (P08195 102-630 partner): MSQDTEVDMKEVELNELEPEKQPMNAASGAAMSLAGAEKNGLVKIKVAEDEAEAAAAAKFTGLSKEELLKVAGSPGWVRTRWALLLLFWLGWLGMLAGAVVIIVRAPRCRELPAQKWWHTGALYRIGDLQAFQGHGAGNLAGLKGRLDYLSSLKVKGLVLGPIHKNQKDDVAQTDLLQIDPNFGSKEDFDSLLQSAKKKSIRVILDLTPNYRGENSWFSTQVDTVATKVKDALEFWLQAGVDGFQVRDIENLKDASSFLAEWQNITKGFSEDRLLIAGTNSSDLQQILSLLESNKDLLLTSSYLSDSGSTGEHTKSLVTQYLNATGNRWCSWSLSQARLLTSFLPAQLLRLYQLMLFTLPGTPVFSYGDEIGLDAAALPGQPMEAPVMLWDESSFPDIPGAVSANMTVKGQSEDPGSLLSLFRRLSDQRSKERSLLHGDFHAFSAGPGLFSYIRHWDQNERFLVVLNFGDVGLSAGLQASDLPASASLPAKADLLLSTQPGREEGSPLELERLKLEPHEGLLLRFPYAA

[3] = 1 mM substrate, Cl^- fixed at 100 mM
[4] = 1 mM substrate, Na^+ fixed at 100 mM

Row | Structure (SMILES) | IC50 (mouse ATB^0,+ [1]) | potency of L-isomer relative to D-isomer as inhibitor of ATB^0,+-mediated glycine uptake (mouse ATB^0,+ [1]; 1-methyl-L-tryptophan versus 1-methyl-D-tryptophan) | Hill coefficient (h), Na^+-activation kinetics of induced currents (mouse ATB^0,+ [2]; [3]) | Michaelis constant (K0.5) for Na^+ (mouse ATB^0,+ [2]; [3]) | Hill coefficient, Cl^- -activation kinetics of induced currents (mouse ATB^0,+ [2]; [4]) | Michaelis constant for Cl^- (mouse ATB^0,+ [2]; [4]) | Michaelis constant (K0.5) of substrate-induced currents (mouse ATB^0,+ [2]) | effect on cDNA-induced valine uptake (human LAT1/4F2hc) | inhibition of ATB^0,+-specific glycine uptake (mouse ATB^0,+ [1]) | inward currents induced in ATB^0,+-expressing oocytes (mouse ATB^0,+ [2]) | type of inhibition of LAT1 (human LAT1/4F2hc)
1 | Cn1cc(C[C@H](N)C(=O)O)c2ccccc21 [1-methyl-L-tryptophan] | 23 ± 5 µM | at least 35 fold | 1.9±0.2 | 27 ± 2 mM | 1.2±0.2 | 2.1 ± 0.3 mM | 93 ± 16 µM | abolished completely |  |  | 
2 | CC(N)(Cc1c[nH]c2ccccc12)C(=O)O (racemic) [α-methyl-DL-tryptophan] |  |  |  |  |  |  |  | abolished completely | inhibited | failed to induce currents | competitive inhibitor
3 | Cn1cc(C[C@@H](N)C(=O)O)c2ccccc21 [1-methyl-D-tryptophan] | 780 ± 225 µM |  |  |  |  |  | 462 ± 78 µM |  |  |  | 
4 | Cn1cc(CC(N)C(=O)O)c2ccccc21 (racemic) [1-methyl-DL-tryptophan] |  |  |  |  |  |  |  | abolished completely | inhibited | induced marked currents | 
